Results on 15 compounds are retold here after ChEMBL document CHEMBL3621087, “Adamantane amine derivatives as dual acting NMDA receptor and voltage-gated calcium channel inhibitors for neuroprotection” (Medchemcomm, 2014).

The source made the active and inactive calls. No cut-off for these calls is given here.

One may read the inhibition as how much of the control response was suppressed.

Assay [1] is filed under the species Mus musculus. In words: Inhibition of NMDA receptor in mouse synaptoneurosomes assessed as reduction of NMDA/glycine-induced calcium influx at 100 uM after 30 mins using Fura-2 AM by fluorescence assay relative to control.
For assay [2], the species on record is Mus musculus. The assay is described as follows: Inhibition of voltage-gated calcium channel in mouse synaptoneurosomes assessed as reduction of KCl-induced calcium influx at 100 uM after 30 mins using Fura-2 AM by fluorescence assay relative to control.

As to `NC12CC3CC(CC(C3)C1)C2`, the values for the inhibition in the assay listed under Mus musculus [1] and in the assay filed under Mus musculus [2] were 84.6% and 2.76%, respectively.

With `O=[N+]([O-])c1ccc(CNC23CC4CC(CC(C4)C2)C3)cc1`, the inhibition came to 74.8% in the assay filed under Mus musculus [1] and 85.7% in the assay filed under Mus musculus [2].

As for `Nc1cccc(CNC23CC4CC(CC(C4)C2)C3)c1`, the inhibition in the assay filed under Mus musculus [1] stood at 48.3%; in the assay filed under Mus musculus [2], 30%.

Consider `Nc1ccc(CNC23CC4CC(CC(C4)C2)C3)cc1`, for which the inhibition came to 50.4% in the assay filed under Mus musculus [1] and 49.5% in the assay listed under Mus musculus [2].

Consider `Nc1ccccc1CNC12CC3CC(CC(C3)C1)C2`, for which the inhibition in the assay filed under Mus musculus [1] amounted to 31.3%; in the assay filed under Mus musculus [2], 37.1%.

For `COc1ccc(CNC23CC4CC(CC(C4)C2)C3)cc1`, the figures for the inhibition in the assay filed under Mus musculus [1] and in the assay filed under Mus musculus [2] were 79.2% and 71.2%, respectively.

Turning to `C[C@]12N[C@H](Cc3ccccc31)c1ccccc12`, in the assay filed under Mus musculus [1], the inhibition amounted to 100%. Also, the inhibition entry in the assay filed under Mus musculus [2] is “inactive”.

With `c1ccc(CNC23OC4C5C6CC(C7C6C4C72)C53)cc1` (stereo not given), the inhibition came to 22.2% in the assay filed under Mus musculus [1] and 38.4% in the assay filed under Mus musculus [2].

For `O=[N+]([O-])c1ccccc1CNC12CC3CC(CC(C3)C1)C2`, the inhibition was determined as 60.6% in the assay listed under Mus musculus [1] and 49.2% in the assay listed under Mus musculus [2].

Regarding `c1ccc(CNC23CC4CC(CC(C4)C2)C3)cc1`, the inhibition in the assay listed under Mus musculus [1] was found to be 66.7%; in the assay filed under Mus musculus [2], 39.6%.

Take `CC12CC3CC(C)(C1)CC(N)(C3)C2`: the inhibition amounted to 92.5% in the assay filed under Mus musculus [1] and 5.2% in the assay listed under Mus musculus [2].

Take `c1ccc(CCNC23CC4CC(CC(C4)C2)C3)cc1`: the inhibition worked out at 89.5% in the assay listed under Mus musculus [1] and 42% in the assay filed under Mus musculus [2].

For the compound `COc1cccc(CNC23CC4CC(CC(C4)C2)C3)c1`, the inhibition worked out at 70.2% in the assay listed under Mus musculus [1] and 44.7% in the assay listed under Mus musculus [2].

In the case of `COCCOC(=O)C1=C(C)NC(C)=C(C(=O)OC(C)C)C1c1cccc([N+](=O)[O-])c1` (stereo not given), in the assay listed under Mus musculus [1], the inhibition entry was “inactive”. The inhibition in the assay filed under Mus musculus [2] came out at 100%.

For the compound `O=[N+]([O-])c1cccc(CNC23CC4CC(CC(C4)C2)C3)c1`, the inhibition in the assay filed under Mus musculus [1] is 36.6%; in the assay listed under Mus musculus [2], 14.3%.
